Data published in ChEMBL document CHEMBL3046447, “Insecticidal Activity of α-Methylene-γ-butyrolactone against Several Insect Pests” (1999).

Columns and labels:
Assay type in all cases: functional
Nilaparvata lugens [1] = test: Insecticidal activity against adult Nilaparvata lugens (brown planthopper) assessed as mortality at 600 ug/disc after 48 hr relative to control
Nilaparvata lugens [2] = test: Insecticidal activity against adult Nilaparvata lugens (brown planthopper) assessed as mortality at 600 ug/disc after 24 hr relative to control
[3] = test system: Frankliniella occidentalis; test: Insecticidal activity against adult Frankliniella occidentalis (western flower thrips) assessed as mortality at 75 ug/disc after 24 hr relative to control
[4] = test system: Frankliniella occidentalis; test: Insecticidal activity against adult Frankliniella occidentalis (western flower thrips) assessed as mortality at 37.5 ug/disc after 48 hr relative to control
[5] = test system: Frankliniella occidentalis; test: Insecticidal activity against adult Frankliniella occidentalis (western flower thrips) assessed as mortality at 37.5 ug/disc after 24 hr relative to control
[6] = test system: Frankliniella occidentalis; test: Insecticidal activity against adult Frankliniella occidentalis (western flower thrips) assessed as mortality at 12.5 ug/disc after 72 hr relative to control
[7] = test system: Frankliniella occidentalis; test: Insecticidal activity against adult Frankliniella occidentalis (western flower thrips) assessed as mortality at 12.5 ug/disc after 48 hr relative to control
Nilaparvata lugens [8] = test: Insecticidal activity against adult Nilaparvata lugens (brown planthopper) assessed as mortality at 60 ug/disc after 24 hr relative to control
Nilaparvata lugens [9] = test: Insecticidal activity against adult Nilaparvata lugens (brown planthopper) assessed as mortality at 60 ug/disc after 48 hr relative to control
Spodoptera litura [10] = test: Insecticidal activity against adult Spodoptera litura assessed as mortality at 600 ug/disc after 48 hr relative to control
Spodoptera litura [11] = test: Insecticidal activity against adult Spodoptera litura assessed as mortality at 600 ug/disc after 24 hr relative to control
Spodoptera litura [12] = test: Insecticidal activity against adult Spodoptera litura assessed as mortality at 60 ug/disc after 48 hr relative to control
Spodoptera litura [13] = test: Insecticidal activity against adult Spodoptera litura assessed as mortality at 60 ug/disc after 24 hr relative to control
Plutella xylostella [14] = test: Insecticidal activity against adult Plutella xylostella (diamondback moth) assessed as mortality at 600 ug/disc after 48 hr relative to control
Plutella xylostella [15] = test: Insecticidal activity against adult Plutella xylostella (diamondback moth) assessed as mortality at 600 ug/disc after 24 hr relative to control
Plutella xylostella [16] = test: Insecticidal activity against adult Plutella xylostella (diamondback moth) assessed as mortality at 60 ug/disc after 48 hr relative to control
Plutella xylostella [17] = test: Insecticidal activity against adult Plutella xylostella (diamondback moth) assessed as mortality at 60 ug/disc after 24 hr relative to control
Frankliniella intonsa [18] = test: Insecticidal activity against adult Frankliniella intonsa assessed as mortality at 25 ug/disk after 24 hr relative to control
Frankliniella intonsa [19] = test: Insecticidal activity against adult Frankliniella intonsa assessed as mortality at 12.5 ug/disk after 72 hr relative to control
Frankliniella intonsa [20] = test: Insecticidal activity against adult Frankliniella intonsa assessed as mortality at 12.5 ug/disk after 48 hr relative to control
Frankliniella intonsa [21] = test: Insecticidal activity against adult Frankliniella intonsa assessed as mortality at 12.5 ug/disk after 24 hr relative to control
Thrips palmi [22] = test: Insecticidal activity against adult Thrips palmi assessed as mortality at 75 ug/disk after 24 hr relative to control
Thrips palmi [23] = test: Insecticidal activity against adult Thrips palmi assessed as mortality at 50 ug/disk after 48 hr relative to control
Thrips palmi [24] = test: Insecticidal activity against adult Thrips palmi assessed as mortality at 50 ug/disk after 24 hr relative to control
Thrips palmi [25] = test: Insecticidal activity against adult Thrips palmi assessed as mortality at 37.5 ug/disk after 72 hr relative to control
Thrips palmi [26] = test: Insecticidal activity against adult Thrips palmi assessed as mortality at 37.5 ug/disk after 48 hr relative to control
Thrips palmi [27] = test: Insecticidal activity against adult Thrips palmi assessed as mortality at 37.5 ug/disk after 24 hr relative to control
Thrips palmi [28] = test: Insecticidal activity against adult Thrips palmi assessed as mortality at 25 ug/disk after 72 hr relative to control
Thrips palmi [29] = test: Insecticidal activity against adult Thrips palmi assessed as mortality at 25 ug/disk after 48 hr relative to control
Thrips palmi [30] = test: Insecticidal activity against adult Thrips palmi assessed as mortality at 25 ug/disk after 24 hr relative to control
Thrips palmi [31] = test: Insecticidal activity against adult Thrips palmi assessed as mortality at 12.5 ug/disk after 72 hr relative to control
Thrips palmi [32] = test: Insecticidal activity against adult Thrips palmi assessed as mortality at 12.5 ug/disk after 24 hr relative to control
Thrips palmi [33] = test: Insecticidal activity against adult Thrips palmi assessed as mortality at 12.5 ug/disk after 48 hr relative to control
[34] = test system: Frankliniella occidentalis; test: Insecticidal activity against adult Frankliniella occidentalis (western flower thrips) assessed as mortality at 12.5 ug/disc after 24 hr relative to control
Frankliniella intonsa [35] = test: Insecticidal activity against adult Frankliniella intonsa assessed as mortality at 75 ug/disk after 24 hr relative to control
Frankliniella intonsa [36] = test: Insecticidal activity against adult Frankliniella intonsa assessed as mortality at 50 ug/disk after 72 hr relative to control
Frankliniella intonsa [37] = test: Insecticidal activity against adult Frankliniella intonsa assessed as mortality at 50 ug/disk after 48 hr relative to control
Frankliniella intonsa [38] = test: Insecticidal activity against adult Frankliniella intonsa assessed as mortality at 37.5 ug/disk after 72 hr relative to control
Frankliniella intonsa [39] = test: Insecticidal activity against adult Frankliniella intonsa assessed as mortality at 37.5 ug/disk after 48 hr relative to control
Frankliniella intonsa [40] = test: Insecticidal activity against adult Frankliniella intonsa assessed as mortality at 37.5 ug/disk after 24 hr relative to control
Frankliniella intonsa [41] = test: Insecticidal activity against adult Frankliniella intonsa assessed as mortality at 25 ug/disk after 72 hr relative to control
Frankliniella intonsa [42] = test: Insecticidal activity against adult Frankliniella intonsa assessed as mortality at 25 ug/disk after 48 hr relative to control

C=C1CCOC1=O [TULIPALINE A]
mortality at 600 µg/disc (Nilaparvata lugens [1]): 30%
mortality at 600 µg/disc (Nilaparvata lugens [2]): 0%
mortality at 75 µg/disc [3]: 100%
mortality at 37.5 µg/disc [4]: 100%
mortality at 37.5 µg/disc [5]: 52%
mortality at 12.5 µg/disc [6]: 12%
mortality at 12.5 µg/disc [7]: 8%
mortality at 60 µg/disc (Nilaparvata lugens [8]): 0%
mortality at 60 µg/disc (Nilaparvata lugens [9]): 0%
mortality at 600 µg/disc (Spodoptera litura [10]): 20%
mortality at 600 µg/disc (Spodoptera litura [11]): 0%
mortality at 60 µg/disc (Spodoptera litura [12]): 0%
mortality at 60 µg/disc (Spodoptera litura [13]): 0%
mortality at 600 µg/disc (Plutella xylostella [14]): 50%
mortality at 600 µg/disc (Plutella xylostella [15]): 0%
mortality at 60 µg/disc (Plutella xylostella [16]): 0%
mortality at 60 µg/disc (Plutella xylostella [17]): 0%
mortality at 25 µg/disc (Frankliniella intonsa [18]): 34%
mortality at 12.5 µg/disc (Frankliniella intonsa [19]): 0%
mortality at 12.5 µg/disc (Frankliniella intonsa [20]): 0%
mortality at 12.5 µg/disc (Frankliniella intonsa [21]): 0%
mortality at 75 µg/disc (Thrips palmi [22]): 100%
mortality at 50 µg/disc (Thrips palmi [23]): 100%
mortality at 50 µg/disc (Thrips palmi [24]): 80%
mortality at 37.5 µg/disc (Thrips palmi [25]): 100%
mortality at 37.5 µg/disc (Thrips palmi [26]): 94%
mortality at 37.5 µg/disc (Thrips palmi [27]): 56%
mortality at 25 µg/disc (Thrips palmi [28]): 90%
mortality at 25 µg/disc (Thrips palmi [29]): 70%
mortality at 25 µg/disc (Thrips palmi [30]): 14%
mortality at 12.5 µg/disc (Thrips palmi [31]): 20%
mortality at 12.5 µg/disc (Thrips palmi [32]): 2%
mortality at 12.5 µg/disc (Thrips palmi [33]): 14%
mortality at 12.5 µg/disc [34]: 4%
mortality at 75 µg/disc (Frankliniella intonsa [35]): 100%
mortality at 50 µg/disc (Frankliniella intonsa [36]): 94%
mortality at 50 µg/disc (Frankliniella intonsa [37]): 70%
mortality at 37.5 µg/disc (Frankliniella intonsa [38]): 76%
mortality at 37.5 µg/disc (Frankliniella intonsa [39]): 66%
mortality at 37.5 µg/disc (Frankliniella intonsa [40]): 58%
mortality at 25 µg/disc (Frankliniella intonsa [41]): 48%
mortality at 25 µg/disc (Frankliniella intonsa [42]): 48%
